This passage reports IC50, inhibition in vivo and Activity results from ChEMBL document CHEMBL5104164, “Design, synthesis, and biological evaluation of pyrrolopyrimidine derivatives as novel Bruton's tyrosine kinase (BTK) inhibitors” (Eur J Med Chem, 2022).

Structures are written as SMILES. Where only a bound is given, the exact number is not on record here.

For orientation: IC50 means the concentration that inhibits the measured activity by half. High values mean weaker potency, low ones greater potency.

One series concerns SU-DHL-6. Nature of the series: Antiproliferative activity against human SU-DHL-6 cells incubated for 72 hrs by CellTiter-Glo assay. In kind it is functional, cell-based. Particulars: SU-DHL-6, 72 h.
The next series relates to SUD4. Nature of the series: Antiproliferative activity against human SU-DHL-4 cells incubated for 72 hrs by CellTiter-Glo assay. Particulars: SU-DHL-4, 72 h. In kind it is functional, cell-based. A general note: ATP-based viability assays read luminescence as a measure of living cells.
Another series deals with DOHH-2. Nature of the series: Antiproliferative activity against human DOHH-2 cells incubated for 72 hrs by CellTiter-Glo assay. In kind it is functional, cell-based. Particulars: DOHH-2, 72 h.
For another series, the system named is Ramos. Nature of the series: Antiproliferative activity against human Ramos cells incubated for 72 hrs by CellTiter-Glo assay. Type of series: functional, cell-based.
A further series deals with Raji. Nature of the series: Antiproliferative activity against human Raji cells incubated for 72 hrs by CellTiter-Glo assay. Type of series: functional, cell-based.
The test system of the next series is Pfeiffer. Nature of the series: Antiproliferative activity against human Pfeiffer cells incubated for 72 hrs by CellTiter-Glo assay. Type of series: functional, cell-based.
The next series concerns Rec1. Nature of the series: Antiproliferative activity against human REC1 cells incubated for 72 hrs by CellTiter-Glo assay. In kind it is functional, cell-based. As to conditions: Rec1, 72 h.
For series [1], the system named is TMD8. Nature of the series: Antiproliferative activity against human TMD8 cells incubated for 72 hrs by CellTiter-Glo assay. Particulars: TMD8, 72 h.
The nature of series [2]: Antiproliferative activity against human MINO cells incubated for 72 hrs by CellTiter-Glo assay. In kind it is functional, cell-based.
Series [3] has as its system TMD8. Nature of the series: Antitumor activity against human TMD8 cells xenografted in female CB-17 SCID nude mouse assessed as tumor growth inhibition at 25 mg/kg, po administered twice daily for 21 days. As to conditions: TMD8, 504 h, time 21 day, read-out: TGI. In kind it is functional. Background: In xenograft studies the graft and the host belong to different species.

Series [4] in a line: Toxicity in female CB-17 SCID nude mouse xenografted with human TMD8 cells assessed as effect on body weight at 25 mg/kg, po administered twice daily for 21 days. Type of series: organism-based. Particulars: in vivo, 504 h, time 21 day.
For a further series, the system named is OCI-Ly3. Nature of the series: Antiproliferative activity against human OCILY3 cells incubated for 72 hrs by CellTiter-Glo assay. In kind it is functional, cell-based. Particulars: OCI-Ly3, 72 h.

With `C=CC(=O)N1CCC[C@@H](n2nc(-c3ccc(Oc4ccccc4)cc3)c3c(N)ncnc32)C1` [IBRUTINIB], the IC50 is 1500 nM in the series with SU-DHL-6; 804 nM in the series with SUD4; 506 nM in the series on DOHH-2; 2090 nM in the series with Ramos; more than 10000 nM with Raji; 1650 nM in the series on Pfeiffer. Moreover, the concentration for half-maximal inhibition (IC50) in the series with Rec1 is 0.8 nM; in the series with TMD8 [1], 2.7 nM; in [2], more than 10000 nM; in the series with OCI-Ly3 it was more than 10000 nM. Moreover, in the series on TMD8 [3], the inhibition in vivo at 25 mg/kg amounted to 103%. In [4], the Activity entry is “Non-Toxic”.
